Measured values: patent US11992560B2, “Electrospun fibers for a local release of an anti-inflammatory drug and a promyelinating drug” (ALMA MATER STUDIORUM—UNIVERSITÀ DI BOLOGNA, priority 2018, dated 2024)

Test system: LPS stimulated RAW 264.7 cells
Test: In vitro efficacy: gene expression (qPCR) in LPS stimulated RAW cells treated with conditioned medium
Type: cell-based, murine
Settings: conditioned medium 24 h, LPS 500 ng/ml; respect to sc LPS or ibsc
Protocol: The murine macrophage cell line RAW 264.7 was purchased from the American Type Culture Collection (ATCC® TIB-71™). Cells were grown at 37° C. in DMEM high glucose medium (Thermo Fisher Scientific) supplemented with 10% heat-inactivated fetal bovine serum (FBS—Thermo Fisher Scientific), 1% penicillin/streptomycin (100 U ml-1/100 μg ml-1) (Thermo Fisher Scientific), in a humidified incubator of 5% CO2. When 70-80% confluency was reached, cells were detached mechanically with the scraper and subcultured in 75 cm2 flasks.
In order to evaluate the bioactivity of ibuprofen and T3 released from electrospun PLLA fibres conditioned medium was prepared ad described below. […] Three samples/group were analysed.
At the end of the treatments total RNA isolation was performed with the RNeasy Micro kit (Qiagen) following the manufacturer's instructions. Total RNA was eluted in RNase-free water and concentration estimated through absorbance values at 260, 280 and 320 nm (Nanodrop 2000 spectrophotometer, Thermo Scientific). […] Semi-quantitative real-time PCR was performed using the CFX96 real-time PCR system (Bio-Rad). […] Relative quantification of the target genes expression was calculated using the comparative threshold method 2^(—ΔΔCT). […]

CC(C)Cc1ccc(C(C)C(=O)O)cc1 (stereo not shown) [SC+IBU, Ibuprofen]
TNFα mRNA level (in words): comparable
